This passage reports GI50 and TGI results from PubChem BioAssay (NCI).

What all share (experiment): growth of human tumour cells (NCI), 48 h
Experiment [1] deals with 786-0 renal.
In experiment [2] the test system is ACHN renal.
For experiment [3], the system named is CCRF-CEM leukemia.
The test system of experiment [4] is HCT-116 colon.
Experiment [5] relates to KM12 colon.
Experiment [6] relates to OVCAR-4 ovarian.
Experiment [7] relates to SK-MEL-28 melanoma.
The subject of experiment [8] is SNB-75 CNS.
The subject of experiment [9] is EKVX NSCLC.

Several values for one entry are separate records, joined by “and”; a condition that tells them apart may be missing. Equal values may be shown once.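 Growth conditions: 96-well plates. Treatment: test compound, 48 hours, 5 concentrations. Analysis: linear interpolation between bracketing concentrations; unreached endpoints set to highest concentration. GI50 marks 50% less growth. At the TGI there is no net growth.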 Some results are limits rather than exact numbers.

Take `Cc1nn(-c2nc3ccccc3[nH]2)c2c1C(c1ccc3c(c1)OCO3)CC(=O)N2` (stereo unspecified): the GI50 is 3.65 µM in experiment [1]; 4.07 µM in experiment [2]; 1.94 µM in [3]; 2.24 µM in experiment [4]; 2.33 µM in experiment [5]; 3.51 µM in experiment [6]. Besides, the GI50 in [7] is 3.39 µM; in experiment [8], 2.69 µM. Besides, the TGI in experiment [1] is 21.9 µM; in [2], greater than 100 µM; in [3], greater than 24.7 µM; in [4] it was 4.73 µM; in experiment [5], 5.45 µM; in [6], greater than 87.4 µM. The TGI came out at 32.6 µM in experiment [7] and 8.09 µM in experiment [8].
On to `CC(=O)c1c[nH]cc1CO`, for which the TGI in experiment [1], in experiment [2], in experiment [3], in [4], in experiment [5] and in [7] was greater than 10 µM throughout. The compound further displayed a TGI in experiment [8] greater than 10 µM.
As for `CC(C)CCc1c(Cl)nc(Cl)nc1Cl`, the TGI was 46.3 µM in [1]; 92.3 µM in experiment [2]; greater than 100 µM in experiment [3]; 63.2 µM in experiment [9]; 9.3 µM in [4]; 44.2 µM in experiment [6]. For the same compound, in [8], the TGI amounted to 22.3 µM.
For `COC(=O)[C@@H](C)C[C@H](Cc1ccccc1)NC(=O)c1csc([C@@H](C[C@H](C(C)C)N(C)C(=O)C2(NC(=O)[C@H]3CCCCN3C)CC2)OC(C)=O)n1`, the TGI in experiment [1], in experiment [2], in experiment [3], in experiment [9], in experiment [4] and in experiment [5] was greater than 33.3 µM each time. In experiment [8], this compound displayed a TGI greater than 33.3 µM. The GI50 in [3] is 0.00531 µM and 0.00333 µM; in [4], 0.00343 µM and 0.00333 µM; in [5] it was 0.00655 µM and 0.00333 µM; in [6] it was 0.00865 µM; in experiment [8], 0.00434 µM and 0.00333 µM.
In the case of `O=C(CN1C(=O)c2ccccc2C1=O)C(O)CN1C(=O)c2ccccc2C1=O` (stereo unspecified), the TGI was greater than 100 µM in experiment [1]; 49.3 µM in [2]; greater than 100 µM in [9]; greater than 100 µM in experiment [4]; greater than 100 µM in experiment [5]; greater than 100 µM in [6]. Also, the TGI was greater than 100 µM in experiment [7] and 39.8 µM in [8].
Regarding `O=C1C(=O)c2ccccc2C(O)=C1CCCCCCCCC1CCCCC1`, the TGI was 18.9 µM in [1]; 15.6 µM in experiment [2]; 13.6 µM in [3]; 12.3 µM in experiment [4]; 23.1 µM in experiment [5]; greater than 100 µM in experiment [6]. In addition, the TGI is 35 µM in [7] and 22.9 µM in experiment [8].
Turning to `C=C1C(=O)O[C@H]2[C@H]1CC/C(CNS(=O)(=O)c1cccc3ccccc13)=C\CC[C@@]1(C)O[C@@H]21`, the GI50 in [1] is 1.61 µM; in experiment [2], 1.19 µM; in [3], 0.624 µM; in experiment [9], 2.53 µM; in experiment [4] it was 1.08 µM; in experiment [5], 9.76 µM. The figures for the GI50 in [6] and in [7] were 1.72 µM and 1.97 µM, respectively. In addition, the TGI in [1] was 3.27 µM; in experiment [2], 2.56 µM; in experiment [3], 3.82 µM; in experiment [9], 10.3 µM; in experiment [4] it was 2.3 µM; in experiment [5] it was 25.8 µM. The values for the TGI in experiment [6] and in [7] were 3.68 µM and 4.24 µM, respectively.
Turning to `CC(C)C[C@@H]1NC(=O)[C@@H]2CCCN2C(=O)[C@@H]2CCCN2C(=O)[C@H](CC(C)C)NC(=O)[C@H](CO)NC(=O)[C@H](CCCCN)NC(=O)[C@H]([C@H](C)O)NC(=O)[C@@H]2CCCC[C@@H](NC1=O)C(=O)N[C@@H](Cc1ccccc1)C(=O)N1CCC[C@H]1C(=O)N[C@@H](CC(=O)O)C(=O)NCC(=O)N[C@@H](CCCN=C(N)N)C(=O)N2`, the GI50 in [1], in experiment [2], in experiment [3], in [9], in experiment [4] and in experiment [5] was greater than 50 µM in each case. In addition, the GI50 in experiment [6] and in experiment [7] was greater than 50 µM each time. Besides, the TGI in experiment [1], in [2], in [3], in experiment [9], in experiment [4] and in experiment [5] was greater than 50 µM in each case. The TGI in [6] and in experiment [7] was greater than 50 µM in each case.
As for `COC(=O)c1cc2oc(/C=C3\SC(=S)N(NC(C)=O)C3=O)cc2n1Cc1ccccc1`, the GI50 is 8.2 µM in experiment [1]; 3.68 µM in experiment [2]; 3.08 µM in [9]; 7.62 µM in [4]; 2.95 µM in experiment [5]; 9.06 µM in experiment [7]. Also, in experiment [8], the GI50 is 7.67 µM. For the same compound, the TGI was determined as 18.6 µM in [1]; 10.5 µM in experiment [2]; 15.3 µM in experiment [9]; 14.3 µM in experiment [4]; 12.8 µM in [5]; 38.5 µM in [7]. The compound also returned a TGI in [8] of 25.4 µM.
`O=C(CCCCCCC(=O)Nc1ccc2c(c1)/C(=C/c1ccc[nH]1)C(=O)N2)NO`: the GI50 in experiment [1] was 2.37 µM; in experiment [2], 0.904 µM; in [3], 0.0923 µM; in experiment [4], 0.23 µM; in [5], 0.894 µM; in experiment [6] it was 1.27 µM. In addition, the GI50 was 0.372 µM in [7] and 0.194 µM in experiment [8]. For the same compound, the TGI in [1] is 26.5 µM; in [2], 4.67 µM; in experiment [3], greater than 100 µM; in [4] it was 2.87 µM; in experiment [5], greater than 23.2 µM; in [6] it was 52 µM. For the same compound, the TGI in experiment [7] amounted to 9.3 µM; in [8], 65.4 µM.
On to `CSC1C(=O)c2ccccc2/C(=N/Nc2nc3ccccc3s2)C1C` (stereo unspecified), for which the GI50 was 10.1 µM in experiment [1]; 5.65 µM in [2]; 8.44 µM in [9]; 4.67 µM in [4]; 18.7 µM in experiment [5]. Also, the TGI is 19.7 µM in [1]; 11.7 µM in [2]; 18.4 µM in experiment [9]; 28.8 µM in experiment [4]; greater than 50 µM in experiment [5].
Regarding `COc1cc(-c2oc3c(OC)c(O)c(OC)c(O)c3c(=O)c2OC)ccc1O`, the TGI in experiment [1], in [2], in experiment [3], in experiment [9], in experiment [4] and in experiment [5] was greater than 100 µM each time. The TGI in [6] and in [7] was greater than 100 µM throughout.
`N#C[S-].[Au+].c1ccc(CN2[CH-]N(Cc3ccccc3)C(c3ccccc3)=C2c2ccccc2)cc1`: the GI50 was 0.444 µM in experiment [1], 0.527 µM in [5], 0.413 µM in [6] and 0.385 µM in [8]. In addition, the TGI is 1.91 µM in experiment [1], 2.79 µM in [5], 2.1 µM in [6] and 2.65 µM in [8].
For `N=C(N)c1ccc(-c2ccc(-c3cccs3)s2)nc1`, the GI50 is 1.67 µM in [1]; 1.76 µM in [2]; 1.78 µM in [3]; 1.38 µM in [4]; 1.88 µM in experiment [5]; 0.944 µM in [6]. Besides, the results for the GI50 in experiment [7] and in experiment [8] were 1.7 µM and 1.78 µM, respectively. The TGI in experiment [1] was found to be 3.3 µM; in [2], 3.33 µM; in experiment [3], 4.19 µM; in experiment [4], 2.79 µM; in experiment [5], 3.6 µM; in experiment [6] it was 3.32 µM. Besides, the TGI in [7] was determined as 3.65 µM; in experiment [8], 4.52 µM.
On to `COc1cc([N+](=O)[O-])c(OC)cc1-c1nc2sc(Cl)cn2c1/C=N/NC(=N)N/N=C/c1c(-c2cc(OC)c([N+](=O)[O-])cc2OC)nc2sc(Cl)cn12`, for which the GI50 was 1.84 µM in experiment [1]; 2.23 µM in experiment [2]; 1.76 µM in experiment [4]; 1.54 µM in experiment [5]; 2.42 µM in [6]; 3.19 µM in experiment [7]. Besides, the TGI in experiment [1] was 3.29 µM; in [2] it was 4.88 µM; in [4], 3.15 µM; in experiment [5], 2.95 µM; in experiment [6], 5.71 µM; in experiment [7] it was greater than 100 µM.
On to `O=C1C[C@H]2CC3(CC[C@H]2CN1)OCCO3`, for which the TGI in [1], in experiment [3], in experiment [9], in experiment [4], in experiment [5] and in experiment [6] was greater than 100 µM each time. In addition, the TGI in experiment [7] and in experiment [8] was greater than 100 µM throughout.
In the case of `O=C1/C(=C/c2ccc(Cl)cc2)COc2ccc(O)c(O)c21`, the GI50 in experiment [1] was 1.42 µM; in experiment [2], 1.14 µM; in experiment [9] it was 1.49 µM; in experiment [5], 1.36 µM; in experiment [6], 1.33 µM; in experiment [7], 1.53 µM. The GI50 in experiment [8] is 1.34 µM. The TGI in experiment [1] was 5.17 µM; in experiment [2], 2.36 µM; in experiment [9] it was 3.19 µM; in [5] it was 3.31 µM; in [6], 2.71 µM; in experiment [7], 3.06 µM. In addition, the TGI in experiment [8] worked out at 3.65 µM.
